Source: patent US12448393B2, “Use of novel compound, for preventing, improving or treating amyotrophic lateral sclerosis” (PRG S&TECH INC., priority 2019, dated 2025)
Entries after “also recorded” stand apart in the source; their conditions may differ.

Legend:
[1] = test system: WT-SOD1 and mutant SOD1-GST (A4V, G37R, G85R, G93A); experiment: ELISA compound screening for binding inhibitor between WT-SOD1 and mutant SOD1; set-up: species or system human
Description: For compound screening, the present inventors applied an ELISA assay system. To select a binding inhibitor between WT-SOD1 and mutant SOD1, the present inventors used 0.5% paraformaldehyde (PFA) to fix WT-SOD1 recombinant protein on a 96-well plate. The plate was dried, washed with phosphate-buffered saline (PBS), and reacted with the compounds at a final concentration of 50 μM, and then mutant SOD1-GST (A4V, G37R, G85R, G93A) proteins were added. After 2 hours of reaction, the 96-well plate was washed with PBS and blocked with 3% skim milk to prevent non specific reaction. The plate was reacted with anti-GST antibody (diluted at 1:10,000) for 1 hour, and then reacted with anti-mouse IgG-HRP (diluted at 1:50,000) for 1 hour. After washing twice, the plate was reacted with a 3,3′,5,5′-tetramethylbenzidine (TMB) solution (Calbiochem) for 30 minutes and a stop solution (1N H2SO4) for 30 minutes. Finally, the present inventors analyzed values using an ELISA reader (450 nm absorbance). Negative control (−; red line) was reacted without mutant SOD1, and positive control (+; blue line) was reacted with mutant SOD1 without the compounds.
To prepare recombinant proteins, human SOD1 (WT, A4V, G37R, G85R, G93A) was added to EcoRI and HindIII sites of pGEX-TEV vector, an improved vector made by adding a TEV protease cleavage site to pGEX-4T1 (Invitrogen). The recombinant proteins were expressed as GST-fusion proteins in Escherichia coli (E. coli) strain BL21 (DE3). The proteins were purified by glutathione-affinity chromatography.

SOD1 [2] = experiment: Immunofluorescence staining of SOD1 aggregation and misfolded SOD1; type: cell-based, human; settings: Table 1; IF staining of SOD1
Description: (§1) Cells on coverslip were washed with PBS, fixed with 4% PFA at room temperature for 30 minutes, and then infiltrated with 0.1% Triton X-100/PBS for 10 minutes. The cells were treated with blocking solution (anti-Human Antibody 1:500 dilution in PBS) for 1 hour, and then cells were reacted with anti-pan SOD1 (1:400 dilution), misfolded SOD1 (B8H10; 1:200 dilution in blocking solution) at 4° C. overnight. Finally, the cells were reacted with FITC and rhodamine-conjugated secondary antibody at 4° C. for 6 hours. Nuclei were stained with 4,6-diamidino-2-phenylindole (DAPI), and endoplasmic reticula (ERs) were stained with ER-Tracker Red dye for 10 minutes. The cells were washed 3 times with PBS, and then coverslips were mounted with mounting solution [H-5501; Vector Laboratories (Burlingame, CA, USA)] and analyzed by fluorescence microscopy (Zeiss).
(§2) GFP-SOD1 (WT, G85R, G93A), non-tagged SOD1 (WT, A4V, G37R, G85R, G93A) and tdTomato-TDP43 expression vectors were purchased from Addgene (Cambridge, MA, USA). Transfection was performed using Jet-PEI reagent (JetPEI; Polyplus transfection, New York, NY, USA) according to the manufacturer's protocol. Briefly, vectors were mixed with JetPEI reagent in 150 mM NaCl buffer, and then mixture was reacted for 15 minutes. The mixture was added to cells in serum-free medium and reacted for 4 hours. After reaction, the cells were replaced with a culture medium supplemented with 10% FBS.

SOD1 [3] = molecular target: T1, SOD1 (Homo sapiens, UniProt P00441); experiment: as above; type: cell-based
Description: as §1, §2

SOD1 [4] = experiment: Western blot / native gel analysis of SOD1 aggregation; type: cell-based, human; settings: for mutant SOD1 aggregation: FIGS. 3B and 3C
Description: (§3) Using RIPA buffer (50 mM Tris-Cl, pH 7.5, 150 mM NaCl, 1% NP-40, 0.1% SDS and […]) for SDS-PAGE and lysis buffer (50 mM Tris-Cl, pH 7.5, 150 mM NaCl, 0.3% NP-40) for Native-PAGE, proteins were extracted from cells. Samples were separated by the SDS-PAGE or the Native-PAGE and transferred to PVDF membrane. Blotted membrane was blocked with TBST buffer including 3% skim milk for 1 hour, and reacted with specific antibodies. The reacted antibodies were detected by ECL and X-ray film exposure. Antibodies used in the present disclosure are as follows: pan-SOD1 (GTX100554) was purchased from Genetex (California, USA). Misfolded SOD1-specific antibody (B8H10) was purchased from MediMabs (Montreal, Canada). Actin (sc-1616), GST (sc-138), and GFP (Green fluorescent protein; sc-8036) were purchased from Santa Cruz biotechnology (Santa Cruz, CA, USA). TDP-43 antibody (10782-2-AP) was purchased from Proteintech (Rosemont, IL, USA). Anti-FLAG (Sigma; F3165) was purchased from Sigma Aldrich (St, Louis, Mo, USA), and HRP-conjugated goat anti-mouse, goat anti-rabbit, and mouse anti-goat antibodies (Pierce, Thermo Fisher Scientific, Inc., Rockford, IL, USA) were used as secondary antibodies.
as §2

SOD1 [5] = molecular target: T1, SOD1; experiment: as above; type: cell-based
Description: as §3, §2

normal human fibroblasts = experiment: Cell viability measurement (MTT), normal fibroblasts; type: cell-based; settings: for cytotoxic effect in normal fibroblasts: MTT, FIG. 4E, FIG. 9B
Description: HEK293 cells were purchased from American Type Culture Collection (ATCC, Manassas, VA, USA) and maintained at 37° C. and 5% CO2 in DMEM liquid medium including 10% fetal bovine serum and 1% penicillin-streptomycin. SK—N—SH cells were purchased from Korean Cell Line Bank (KCLB, Seoul, South Korea) and maintained in MEM medium including 10% fetal bovine serum, 1% antibiotic, 25 mM HEPES, and 300 mg/L L-Glu. Human fibroblasts (person) were purchased from Coriell Cell Repositories (New Jersey, USA) and maintained in EMEM including 15% FBS, 2 mM Glutamine, and 26 mM HEPES without antibiotics. Thapsigargin (ER calcium scavenger: CAS 67526-95-8) was purchased from Calbiochem (Darmstadt, Germany). CoCl2 (hypoxia-inducer: C8661) was purchased from Sigma Aldrich (St, Louis, Mo, USA).
To check cells viability, the cells were reacted with 0.5 mg/ml MTT solution (475989; Merck, Darmstadt, Germany) at 37° C. for 4 hours. After removing residual solution and washing with PBS, precipitate was dissolved in 200 μl DMSO, and quantified by measuring absorbance at 540 nm.

T1 sequence (P00441 2-154): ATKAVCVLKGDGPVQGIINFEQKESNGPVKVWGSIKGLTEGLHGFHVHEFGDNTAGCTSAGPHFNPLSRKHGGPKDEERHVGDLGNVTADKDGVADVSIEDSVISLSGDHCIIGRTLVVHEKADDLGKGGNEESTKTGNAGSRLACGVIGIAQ

ELISA ([1]; Table 1, compounds at final concentration of 50 μM): Effect ○ | binding inhibition in ELISA compound screening ([1]; WT-SOD1 fixed on plate, GST-tagged mutant SOD1s, FIG. 3A): specific for mutation | SOD1 aggregation and TDP43 aggregation, native gel analysis (SOD1 [5]; TDP-43 overexpression, FIG. 5B): reduced; also recorded: decreased
Compound: COc1cc(/C=C/C(=O)O[C@H]2Cc3cc4ccc(=O)oc4cc3OC2(C)C)ccc1O [PRG-A-01, (S)-8,8-dimethyl-2-oxo-7,8-dihydro-2H,6H-pyrano[3,2-g]chromen-7-yl (E)-3-(4-hydroxy-3-methoxyphenyl) acrylate]
Immuno-fluorscence (SOD1 [2]): Effect ○ | misfolded SOD1 / SOD1 aggregation induced by hypoxic stress (SOD1 [3]; CoCl2, FIG. 6C): blocks SOD1 aggregation induced by hypoxic stress; also recorded: reduced | SOD1 aggregation induced by TDP-43 overexpression, immunofluorescence (SOD1 [3]; FIG. 5A): inhibited; also recorded: reduce the SOD1 aggregation as well as TDP-43 | mutant SOD1 aggregation (SOD1 [4]): inhibits SOD1 aggregation | mutant SOD1 aggregation (SOD1 [4]; listed as SLC-B036): blocking mutant SOD1 aggregation in a dose-dependent manner | Western Blot (SOD1 [4]; Table 1, effect on SOD1 aggregation, native / non-SDS-PAGE gel): Effect ○ | multimer bands of SOD1 and TDP-43, cross-linking experiment (SOD1 [5]; glutaraldehyde cross-linking, FIG. 5C): blocks multimer formation of SOD1; also recorded: weakened | cytotoxic effect in normal fibroblasts (normal human fibroblasts): not cytotoxic | cytotoxic effect in normal fibroblasts (normal human fibroblasts; listed as SLC-B036): did not exhibit cytotoxic effect | Toxicity (MTT) (normal human fibroblasts; Table 1, cell type not given, neurons (FIG. 9A) and normal fibroblasts (FIG. 9B)): No
